Laboratory results published in patent publication US11649238B2, “Substituted pyrazolo[1,5-a]pyrimidines as PI4K inhibitors” (GLAXOSMITHKLINE INTELLECTUAL PROPERTY DEVELOPMENT LIMITED, priority 2018, dated 2023).
“And” between values parts separate entries of the source, which are not always exact repeats. Equal values may be shown once.

What was measured:
[1] = tested on: human rhinovirus Type A Strain 16 (HRVA16) in HeLa Ohio cells; assay: Cytopathic Effect (CPE) Assay, ATP-depletion in infected HeLa Ohio cells; type: cell-based; settings: HRVA16 at MOI of 1, 33° C. for 2 days, CellTiter-Glo
Experimental: c) Cytopathic Effect (CPE) Assay Protocol
The in vitro inhibition of PI4 KB activity was determined by analysis of the inhibition of ATP-depletion in HeLa Ohio cells in response to infection with human rhinovirus Type A Strain 16 (HRVA16). ATP levels were determined using CellTiter-GLO reagent from Promega. Compounds that inhibit PI4 KB are also potent inhibitors of human rhinoviruses and are able to protect HeLa Ohio cells from CPE induced by viral infection and replication. Protected cells remain viable following viral infection and therefore have greater ATP levels.
Compounds were dissolved in 100% DMSO to a concentration of 3 mM and subsequent dilutions were prepared in 100% DMSO using a 1:3 serial step dilution. A 0.5 μL stamp from an 10-point titration was transferred to a white 96 well Greiner tissue culture flat bottom plate (655083). A 0.5 μL stamp of 100% DMSO was stamped into columns 11 and 12 of the plate, ensuring a final assay DMSO concentration of 0.33% across the plate and a compound top final assay concentration of 10 μM.
HeLa Ohio cells were cultured at 37° C., 5% CO2 in media (DMEM supplemented with 10% Australian origin foetal bovine serum and 2 mM glutamax). Cells were passaged when confluency reached >80%. For the assay, cells were grown to 80-90% confluency before detachment.
Cells were detached for the assay by washing with PBS and detached using 3 mL TrypLE Express for […] at 37° C. Detached cells were mixed with 7 mL of media and centrifuged at 300 g for 5 min. The cell pellet was resuspended in 50 mL media and counted on a Beckman Coulter ViCell. Cells were diluted to 6.6×10^4 cells/mL and some of the cell volume was removed into a new tube to be used as a column 12 control. HRVA16 stock was added to the remaining cell suspension at the appropriate dilution for the virus stock to achieve an MOI of 1.
150 μL of the cell+virus suspension was added per well to columns 1-11 using a Multidrop Combi. 150 μL of the separate cell suspension was added per well to columns 12 using a multichannel pipette. Assay plates were sealed and incubated at 33° C., 5% CO2 for 2 days. After 2 days, assay plates were removed from the incubator and allowed to equilibrate to room temperature. 60 μL of CellTiter-Glo reagent was added to all wells using a Thermo Scientific Multidrop Combi. Plates were incubated at room temperature for 20 min before reading on an a Perkin Elmer Envision (Settings: Gripper height 2.5, Fixed measurement height (mm) 6.5, Distance between plate and detector 0, Measurement time (s) 0.1, Glow (ct2) correction factor (0%)).
The inhibitory effect of the compounds on the PI4 KB activity was evaluated by the IC50 of the response relative to the high (no virus, column 12) and low (virus+no inhibitor, column 11) controls by fitting to a four parameter dose response equation.

[2] = molecular target: T1, human PI4KIII-beta 13-828 (D316-330) (Homo sapiens, UniProt Q9UBF8); assay: PI4 KB Activity Assay (ADP-GLO Kinase assay); type: biochemical; settings: 1 mM ATP, 60 μM phosphatidylinositol, 3 hours at room temperature; read-out: mean pIC50 (converted)
T1 construct: human PI4KIII-beta 13-828 (D316-330)
Method in brief: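 Human PI4KIII-beta 13-828 (Δ316-330), 1.5 nM, with 1 mM ATP and 60 μM phosphatidylinositol in Hepes pH 7.5/MgCl2 buffer, 11-point titration (top 10 μM, 1% DMSO), 3 h at room temperature. ADP measured by ADP-Glo luminescence; IC50 by four-parameter fit against no-compound and no-enzyme controls.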

[3] = Human Microsomal Metabolic Stability Assay; type: in vitro ADME; settings: 0.5 μM test compound, 0.5 mg/mL microsomal protein, 45 min
Experimental: d) Human Microsomal Metabolic Stability Assay Protocol Summary Test compound (0.5 μM) was incubated with pooled liver microsomes. Test compound was incubated over the course of a 45 min experiment and the test compound was analysed by LC-MS/MS. Experimental Procedure Pooled human liver microsomes were purchased from a reputable commercial supplier, for example Corning Life Sciences. Microsomes (final protein concentration 0.5 mg/mL), 50 mM phosphate buffer pH7.4 and NADPH (final concentration=1 mM) were pre-incubated at 37° C. prior to the addition of test compound (final substrate concentration=0.5 μM; final DMSO concentration=0.25%) to initiate the reaction. The final incubation volume was 500 μL. A control incubation was included for each compound tested where 50 mM phosphate buffer pH7.4 was added instead of NADPH (minus NADPH). Two control compounds were included with each species. All incubations are performed singularly for each test compound. Each compound was incubated for 45 minutes and samples (50 μL) of incubate were taken at 0, 5, 15, 30 and 45 min. The control (minus NADPH) was sampled at 45 min only. The reactions were stopped by the addition of 100 μL acetonitrile containing internal standard to the sample. The terminated samples were centrifuged at 2,500 rpm for 20 min at 4° C. to precipitate the protein. Quantitative Analysis Following protein precipitation, the samples were analysed using generic LC-MS/MS conditions. Data Analysis From a plot of In peak area ratio (compound peak area/internal standard peak area) against time, the gradient of the line was determined. Subsequently, intrinsic clearance was calculated using the equations below, then converted to mL/min/g: Elimination rate constant (k)=(−gradient) Half life (t½) (min)=0.693+k Intrinsic Clearance (CLint) (μL/min/mg protein)=(V×0.693)+t1/2 where V=Incubation volume μL/mg microsomal protein.

T1 sequence (Q9UBF8 1-801 isoform Q9UBF8-2): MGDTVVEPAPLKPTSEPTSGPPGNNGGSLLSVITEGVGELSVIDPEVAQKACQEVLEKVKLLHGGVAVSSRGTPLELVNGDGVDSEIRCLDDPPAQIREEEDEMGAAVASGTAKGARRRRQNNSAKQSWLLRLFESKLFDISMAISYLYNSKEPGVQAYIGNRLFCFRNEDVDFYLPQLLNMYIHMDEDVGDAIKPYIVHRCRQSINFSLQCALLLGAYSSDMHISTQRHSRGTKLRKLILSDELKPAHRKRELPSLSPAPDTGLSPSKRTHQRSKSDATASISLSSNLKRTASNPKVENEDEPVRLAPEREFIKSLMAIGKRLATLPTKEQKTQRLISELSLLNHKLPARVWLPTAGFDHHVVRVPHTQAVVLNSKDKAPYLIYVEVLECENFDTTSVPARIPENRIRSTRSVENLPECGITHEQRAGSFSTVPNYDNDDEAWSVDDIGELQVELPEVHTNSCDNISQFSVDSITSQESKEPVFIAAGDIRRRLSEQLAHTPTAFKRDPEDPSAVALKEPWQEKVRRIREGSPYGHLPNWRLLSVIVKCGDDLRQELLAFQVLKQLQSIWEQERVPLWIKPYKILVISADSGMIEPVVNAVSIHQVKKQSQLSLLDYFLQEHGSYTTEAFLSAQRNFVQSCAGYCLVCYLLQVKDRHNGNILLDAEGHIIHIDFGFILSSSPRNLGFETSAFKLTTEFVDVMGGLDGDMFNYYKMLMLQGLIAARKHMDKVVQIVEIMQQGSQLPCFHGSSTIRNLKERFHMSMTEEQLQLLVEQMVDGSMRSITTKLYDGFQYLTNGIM

| mean pIC50 [1] | IC50 [2] | intrinsic clearance [3] [mL/min/g] | SMILES |
| --- | --- | --- | --- |
| 8.9 | 2.51 nM and ≤ 3.98 nM | 28.9 | Cc1ccc(-c2c(C)nn3c(NCc4cccc(-c5nccn5C)c4)cc(C(C)(C)O)nc23)cc1C(=O)N(C)CCCO [Compound 17, 5-(5-(2-Hydroxypropan-2-yl)-2-methyl-7-((3-(1-methyl-1H-imidazol-2-yl)benzyl)amino)pyrazolo[1,5-a]pyrimidin-3-yl)-N-(3-hydroxypropyl)-N,2-dimethylbenzamide] |
| 8.9 | 2.51 nM and ≤ 3.98 nM | 11.6 | CCN(CCO)C(=O)c1cc(-c2c(C)nn3c(NCc4cccc(-c5nccn5C)c4)cc(C(C)(C)O)nc23)ccc1OC [Compound 19, N-ethyl-N-(2-hydroxyethyl)-5-(5-(2-hydroxypropan-2-yl)-2-methyl-7-((3-(1-methyl-1H-imidazol-2-yl)benzyl)amino)pyrazolo[1,5-a]pyrimidin-3-yl)-2-methoxybenzamide] |
| 8.8 | 6.31 nM | 34.0 | COc1ccc(-c2c(C)nn3c(NCc4cccc(-c5nccn5C)c4)cc(C(C)(C)O)nc23)cc1C(=O)N(C)C1CCOCC1 [Compound 21, 5-(5-(2-Hydroxypropan-2-yl)-2-methyl-7-((3-(1-methyl-1H-imidazol-2-yl)benzyl)amino)pyrazolo[1,5-a]pyrimidin-3-yl)-2-methoxy-N-methyl-N-(tetrahydro-2H-pyran-4-yl)benzamide] |
| at least 9.1 | 3.16 nM and ≤ 3.98 nM | 33.7 | Cc1ccc(-c2c(C)nn3c(NCc4cccc(-c5nccn5C)c4)cc(C(C)(C)O)nc23)cc1C(=O)N(C)[C@@H](C)CO [Compound 22, (S)—N-(1-hydroxypropan-2-yl)-5-(5-(2-hydroxypropan-2-yl)-2-methyl-7-((3-(1-methyl-1H-imidazol-2-yl)benzyl)amino)pyrazolo[1,5-a]pyrimidin-3-yl)-N,2-dimethylbenzamide] |
